According to paper PMC12814486 (Bioorganic & medicinal chemistry, 2025):
Converted amounts (≈) assume the structure as drawn.

Tests used:
human FAAH = target: T1, human FAAH (Homo sapiens, UniProt O00519); test: FAAH inhibition assay; type: biochemical
T1 sequence (O00519 1-579): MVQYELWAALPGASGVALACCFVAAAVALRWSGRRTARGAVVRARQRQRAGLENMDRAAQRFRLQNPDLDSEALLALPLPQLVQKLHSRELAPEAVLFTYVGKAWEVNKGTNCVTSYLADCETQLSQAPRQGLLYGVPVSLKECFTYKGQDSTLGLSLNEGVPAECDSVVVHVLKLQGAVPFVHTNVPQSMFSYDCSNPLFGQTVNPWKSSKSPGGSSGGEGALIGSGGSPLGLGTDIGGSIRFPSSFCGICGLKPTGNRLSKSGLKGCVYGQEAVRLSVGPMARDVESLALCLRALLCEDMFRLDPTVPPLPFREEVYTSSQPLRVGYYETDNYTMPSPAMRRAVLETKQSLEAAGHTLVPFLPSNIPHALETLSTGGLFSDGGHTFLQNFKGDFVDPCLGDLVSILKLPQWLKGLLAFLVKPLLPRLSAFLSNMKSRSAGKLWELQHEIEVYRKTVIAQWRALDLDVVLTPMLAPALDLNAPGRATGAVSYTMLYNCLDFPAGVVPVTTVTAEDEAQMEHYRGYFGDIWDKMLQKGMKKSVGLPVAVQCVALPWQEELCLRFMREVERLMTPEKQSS

human sEH = target: T2, human sEH (Homo sapiens, UniProt P34913); test: sEH inhibition assay; type: biochemical
T2 sequence (P34913 1-555): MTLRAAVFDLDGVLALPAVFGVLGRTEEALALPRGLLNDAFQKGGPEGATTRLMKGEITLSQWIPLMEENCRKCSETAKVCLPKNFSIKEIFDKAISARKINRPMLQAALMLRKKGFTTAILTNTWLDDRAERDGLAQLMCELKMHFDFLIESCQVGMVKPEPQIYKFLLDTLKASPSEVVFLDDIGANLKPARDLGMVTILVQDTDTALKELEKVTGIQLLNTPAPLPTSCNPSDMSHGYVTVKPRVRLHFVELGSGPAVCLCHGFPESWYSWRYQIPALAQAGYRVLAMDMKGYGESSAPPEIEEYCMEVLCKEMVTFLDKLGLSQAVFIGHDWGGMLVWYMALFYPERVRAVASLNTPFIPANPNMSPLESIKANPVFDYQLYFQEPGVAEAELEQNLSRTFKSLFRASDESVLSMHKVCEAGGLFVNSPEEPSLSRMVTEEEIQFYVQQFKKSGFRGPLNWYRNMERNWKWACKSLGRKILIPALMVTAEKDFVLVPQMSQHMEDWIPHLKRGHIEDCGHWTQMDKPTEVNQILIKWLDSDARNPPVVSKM

mouse sEH = target: T3, mouse sEH (Mus musculus, UniProt P34914); test: sEH inhibition assay; type: biochemical
T3 sequence (P34914 1-554): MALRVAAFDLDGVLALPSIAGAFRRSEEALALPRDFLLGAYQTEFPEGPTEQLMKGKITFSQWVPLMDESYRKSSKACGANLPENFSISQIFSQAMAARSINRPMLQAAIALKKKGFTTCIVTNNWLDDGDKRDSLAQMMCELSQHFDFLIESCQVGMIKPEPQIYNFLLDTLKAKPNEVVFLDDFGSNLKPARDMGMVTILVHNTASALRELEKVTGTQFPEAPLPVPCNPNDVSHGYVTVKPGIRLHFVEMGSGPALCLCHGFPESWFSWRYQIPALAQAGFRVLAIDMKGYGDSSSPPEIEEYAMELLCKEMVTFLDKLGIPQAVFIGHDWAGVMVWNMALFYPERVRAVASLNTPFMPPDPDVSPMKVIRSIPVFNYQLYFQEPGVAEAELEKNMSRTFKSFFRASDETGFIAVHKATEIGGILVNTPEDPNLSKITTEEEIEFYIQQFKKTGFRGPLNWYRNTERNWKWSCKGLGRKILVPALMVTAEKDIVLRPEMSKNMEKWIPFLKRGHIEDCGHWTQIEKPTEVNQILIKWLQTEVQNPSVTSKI

rat sEH = target: T4, rat sEH (Rattus norvegicus, UniProt P80299); test: sEH inhibition assay; type: biochemical
T4 sequence (P80299 1-554): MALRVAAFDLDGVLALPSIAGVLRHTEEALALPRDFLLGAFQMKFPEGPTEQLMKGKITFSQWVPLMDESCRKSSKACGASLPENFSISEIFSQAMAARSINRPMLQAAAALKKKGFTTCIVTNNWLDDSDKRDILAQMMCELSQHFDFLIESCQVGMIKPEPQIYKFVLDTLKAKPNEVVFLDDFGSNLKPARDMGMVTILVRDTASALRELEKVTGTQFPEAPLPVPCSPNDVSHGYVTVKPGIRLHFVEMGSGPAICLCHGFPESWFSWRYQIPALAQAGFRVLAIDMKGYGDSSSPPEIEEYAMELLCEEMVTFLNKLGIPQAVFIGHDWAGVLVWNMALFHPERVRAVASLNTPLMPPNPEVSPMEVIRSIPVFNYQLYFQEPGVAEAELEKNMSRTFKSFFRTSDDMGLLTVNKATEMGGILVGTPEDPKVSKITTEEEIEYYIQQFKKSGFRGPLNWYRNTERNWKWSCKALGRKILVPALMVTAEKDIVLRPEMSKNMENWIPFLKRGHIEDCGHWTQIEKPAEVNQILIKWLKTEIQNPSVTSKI

Solubility assay = type: physicochemical; conditions: sodium phosphate buffer, pH 7.4, aqueous buffer, kinetic from dmso stock
microsomal EH = target: T5, microsomal EH (Homo sapiens, UniProt P07099); test: Microsomal EH inhibition; type: biochemical; conditions: see Supplemental Data
T5 sequence (P07099 1-455): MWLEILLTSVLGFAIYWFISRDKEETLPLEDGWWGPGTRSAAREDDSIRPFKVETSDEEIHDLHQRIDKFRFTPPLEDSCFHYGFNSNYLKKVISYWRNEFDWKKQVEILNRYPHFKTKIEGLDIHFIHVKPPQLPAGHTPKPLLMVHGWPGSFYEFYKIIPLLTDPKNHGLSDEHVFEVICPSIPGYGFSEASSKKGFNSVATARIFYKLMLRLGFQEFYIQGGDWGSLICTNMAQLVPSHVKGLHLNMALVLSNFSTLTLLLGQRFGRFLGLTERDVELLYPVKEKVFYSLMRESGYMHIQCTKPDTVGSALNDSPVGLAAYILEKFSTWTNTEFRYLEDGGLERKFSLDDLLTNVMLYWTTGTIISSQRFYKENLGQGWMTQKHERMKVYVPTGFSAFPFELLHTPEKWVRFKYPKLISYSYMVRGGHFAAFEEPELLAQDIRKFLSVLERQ

EH3 = target: T6, EH3 (Homo sapiens, UniProt Q9H6B9); test: EH3 inhibition; type: biochemical; conditions: see Supplemental Data
T6 sequence (Q9H6B9 1-360): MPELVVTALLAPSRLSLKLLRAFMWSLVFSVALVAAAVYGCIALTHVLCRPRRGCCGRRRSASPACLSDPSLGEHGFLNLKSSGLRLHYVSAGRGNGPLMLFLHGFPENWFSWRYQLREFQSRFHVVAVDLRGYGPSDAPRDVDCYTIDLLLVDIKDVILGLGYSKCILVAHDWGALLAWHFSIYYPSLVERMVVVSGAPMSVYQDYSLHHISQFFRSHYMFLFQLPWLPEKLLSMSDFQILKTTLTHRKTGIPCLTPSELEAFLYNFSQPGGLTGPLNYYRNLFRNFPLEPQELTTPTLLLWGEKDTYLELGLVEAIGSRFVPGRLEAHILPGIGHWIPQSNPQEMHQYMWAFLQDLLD

## COc1cn2c(-c3ccc(NC(=O)C4CCN(S(=O)(=O)c5ccccc5Cl)CC4)cc3)nnc2c(OC)n1 [Compound 4r, 1-((2-chlorophenyl)sulfonyl)-N-(4-(6,8-dimethoxy-[1,2,4]triazolo[4,3-a]pyrazin-3-yl)phenyl)piperidine-4-carboxamide]
Human FAAH
  IC50: > 10000 nM
Human sEH
  IC50: 19.4 nM
Mouse sEH
  IC50: 9 nM
Rat sEH
  IC50: 21.8 nM
Solubility assay
  solubility: 31 to 63 µM (≈ 17.3 to 35.1 µg/mL)
Microsomal EH
  inhibition of microsomal EH: does not inhibit
EH3
  inhibition of EH3: does not inhibit
